Reference: patent US20240058334A1, “METHODS FOR TREATING SMALL CELL LUNG CANCER AND OTHER NEUROENDOCRINE CANCERS” (AstraZeneca AB, priority 2021, published 2024)

System: SCLC cell lines
Experiment: 96 hr proliferation assay in SCLC cell lines
Assay type: cell-based
Conditions: for response to single agent ATR inhibitor: the three cell lines with greater than additive response to the combination, SLFN11 low group

SMILES	response to single agent ATR inhibitor	lurbinectedin IC50 values (cells with low expression of SLFN11 (FIG. 1))
CNCc1ccc(-c2cc(-c3nc(-c4ccc(S(=O)(=O)C(C)C)cc4)cnc3N)on2)cc1 [berzosertib]	relatively resistant	
C[C@@H]1COCCN1c1cc(C2([S@](C)(=N)=O)CC2)nc(-c2cc[nH]c3nccc2-3)n1 [ceralasertib]	relatively resistant	
COc1ccc2[nH]c3c(c2c1)CCN[C@]31CS[C@@H]2c3c(OC(C)=O)c(C)c4c(c3[C@H](COC1=O)N1[C@@H]2[C@H]2c3c(cc(C)c(OC)c3O)C[C@@H]([C@@H]1O)N2C)OCO4 [lurbinectedin]		higher
